Experimental data: US9328112B2, “Tetracyclic CDK9 kinase inhibitors” (AbbVie Inc., priority 2014, dated 2016)
Where a name gives a salt, the structure may show the parent alone.

What was measured:
CDK9/Cyclin T1 = CDK9/Cyclin T1 (Homo sapiens (Human), UniProt P50750); assay: CDK9 enzyme assay (LANCE ULight TR-FRET kinase assay); assay type: biochemical; conditions: 1000 μM ATP, 100 nM ULight MBP, kinase reaction 1 hour
Protocol: CDK9 enzyme activities were measured using LANCE ULight TR-FRET kinase assay reagents (PerkinElmer, Waltham, Mass.). Compounds were diluted in 100% DMSO then diluted with 1:10 in serine/threonine kinase assay buffer containing 20 mM HEPES, 10 mM MgCl2, […], and 0.0075% Triton X-100. Equal volume of the compound dilutions was added to a final reaction mixture containing LANCE detection buffer (PerkinElmer CR97-100), 100 nM ULight MBP (PerkinElmer TRF0109M), 1000 μM ATP, and CDK9/Cyclin T1 (Carna Biosciences 04-110). The kinase reaction was carried out for 1 hour before addition of stopping buffer to a final of 20 mM EDTA and 0.5 nM of LANCE Ultra Europium anti-phospho-MBP antibody (PerkinElmer TRF0201M) in LANCE detection buffer. The reaction was incubated for 1 hour and the signal was read in Envision in TR-FRET mode (excitation at 320 nm and emission at 615/665 nm).

H929 cells = assay: Cell viability assay (Cell TiterGlo); assay type: cell-based; conditions: Homo sapiens, NCI-H929, 24 hours at 37° C., Cell TiterGlo luminescence
Protocol: The cell viability assay was performed using H929 cells. Cells were seeded in 96-well plates at 10,000 cells/well and, after overnight incubation, treated with compounds in a dose response of 3-fold dilutions from 10 μM to 0.005 μM ([…], 0.1% final DMSO concentration). After 24 hours at 37° C., cell viability was measured using Cell TiterGlo reagent (Promega) with a luminescence reader.

CDK9/Cyclin T1, sequence (P50750 whole entry): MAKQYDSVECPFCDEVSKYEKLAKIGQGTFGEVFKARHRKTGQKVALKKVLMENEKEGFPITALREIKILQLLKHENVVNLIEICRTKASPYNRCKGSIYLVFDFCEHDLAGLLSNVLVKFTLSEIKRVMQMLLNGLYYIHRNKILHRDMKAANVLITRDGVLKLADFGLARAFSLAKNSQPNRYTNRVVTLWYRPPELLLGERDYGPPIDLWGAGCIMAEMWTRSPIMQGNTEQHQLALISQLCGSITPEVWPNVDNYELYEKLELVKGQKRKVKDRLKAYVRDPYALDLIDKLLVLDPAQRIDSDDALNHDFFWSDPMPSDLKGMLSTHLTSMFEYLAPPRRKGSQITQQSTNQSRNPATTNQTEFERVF
CDK9/Cyclin T1, sequence (O60563 whole entry partner): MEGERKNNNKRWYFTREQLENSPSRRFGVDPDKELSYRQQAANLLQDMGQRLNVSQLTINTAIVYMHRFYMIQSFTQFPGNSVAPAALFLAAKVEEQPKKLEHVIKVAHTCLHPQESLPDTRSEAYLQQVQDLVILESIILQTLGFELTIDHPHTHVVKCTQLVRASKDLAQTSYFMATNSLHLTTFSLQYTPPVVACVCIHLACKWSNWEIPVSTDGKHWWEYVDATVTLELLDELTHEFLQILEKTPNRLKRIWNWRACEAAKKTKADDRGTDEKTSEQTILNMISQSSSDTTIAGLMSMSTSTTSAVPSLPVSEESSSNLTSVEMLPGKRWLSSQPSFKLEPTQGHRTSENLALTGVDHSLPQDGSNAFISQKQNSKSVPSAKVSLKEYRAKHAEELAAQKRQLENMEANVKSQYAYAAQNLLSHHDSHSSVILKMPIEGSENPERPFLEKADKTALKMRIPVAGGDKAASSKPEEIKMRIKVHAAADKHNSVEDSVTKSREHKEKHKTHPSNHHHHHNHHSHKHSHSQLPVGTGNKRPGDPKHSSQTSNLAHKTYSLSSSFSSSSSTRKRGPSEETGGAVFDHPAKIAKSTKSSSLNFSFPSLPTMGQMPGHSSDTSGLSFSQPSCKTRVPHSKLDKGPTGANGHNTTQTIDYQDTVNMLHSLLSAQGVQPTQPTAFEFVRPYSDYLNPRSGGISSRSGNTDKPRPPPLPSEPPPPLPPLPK

Structure (SMILES) | IC50 (CDK9/Cyclin T1) | IC50 (H929 cells)
CNC(=O)C1CC=C(c2[nH]c3nccc4c3c2CN(C)c2ccc(F)cc2-4)CC1 (stereo not shown) [Example 52, 4-(10-fluoro-7-methyl-6,7-dihydro-4H-3,4,7-triazadibenzo[cd,f]azulen-5-yl)-N-methylcyclohex-3-ene-1-carboxamide] | 0.063 µM | 0.15 µM
CN(C)C(=O)CN1CC=C(c2[nH]c3nccc4c3c2CN(C)c2ccc(F)cc2-4)C(C)(C)C1 [Example 114, 2-[4-(10-fluoro-7-methyl-6,7-dihydro-4H-3,4,7-triazadibenzo[cd,f]azulen-5-yl)-3,3-dimethyl-3,6-dihydropyridin-1(2H)-yl]-N,N-dimethylacetamide] | 0.87 µM | 3.4 µM
CN1Cc2c(C3=CCN(CC(=O)O)CC3)[nH]c3nccc(c23)-c2cc(F)ccc21 [Example 16, [4-(10-fluoro-7-methyl-6,7-dihydro-4H-3,4,7-triazadibenzo[cd,f]azulen-5-yl)-3,6-dihydropyridin-1(2H)-yl]acetic acid dihydrochloride] | 0.061 µM | 0.22 µM
CS(=O)(=O)N1CC=C(c2[nH]c3nccc4c3c2COc2ccc(F)cc2-4)CC1 [Example 15, 10-fluoro-5-[1-(methylsulfonyl)-1,2,3,6-tetrahydropyridin-4-yl]-4,6-dihydro-7-oxa-3,4-diazadibenzo[cd,f]azulene] | 0.094 µM | 0.59 µM
CN1Cc2c(C3=CCN(CC(=O)O)CC3)[nH]c3nccc(c23)-c2cc(F)c(F)cc21 [Example 145, [4-(9,10-difluoro-7-methyl-6,7-dihydro-4H-3,4,7-triazadibenzo[cd,f]azulen-5-yl)-3,6-dihydropyridin-1(2H)-yl]acetic acid] | 0.042 µM | 0.18 µM
CN1Cc2c(-c3ccc(C(=O)O)cc3)[nH]c3nccc(c23)-c2cc(F)ccc21 [Example 47, 4-(10-fluoro-7-methyl-6,7-dihydro-4H-3,4,7-triazadibenzo[cd,f]azulen-5-yl)benzoic acid] | 0.15 µM | 9.8 µM
CNC(=O)N1CC=C(c2[nH]c3nccc4c3c2CN(C)c2ncccc2-4)CC1 [Example 139, N-methyl-4-(7-methyl-6,7-dihydro-4H-3,4,7,8-tetraazadibenzo[cd,f]azulen-5-yl)-3,6-dihydropyridine-1(2H)-carboxamide] | 0.094 µM | 0.18 µM
CN1Cc2c(C3=CCC(N[C@@H](CO)C(=O)O)CC3)[nH]c3nccc(c23)-c2cc(F)ccc21 (stereo partly drawn) [Example 38, N-[4-(10-fluoro-7-methyl-6,7-dihydro-4H-3,4,7-triazadibenzo[cd,f]azulen-5-yl)cyclohex-3-en-1-yl]-L-serine] | 0.091 µM | 0.27 µM
CN1Cc2c(C3=CCC(N4CCC[C@H]4C(=O)O)CC3)[nH]c3nccc(c23)-c2cc(F)ccc21 (stereo partly drawn) [Example 37, 1-[4-(10-fluoro-7-methyl-6,7-dihydro-4H-3,4,7-triazadibenzo[cd,f]azulen-5-yl)cyclohex-3-en-1-yl]-L-proline] | 0.16 µM | 0.29 µM
CN1Cc2c(C3=CCN(C(=O)OC(C)(C)C)CC3)[nH]c3ncc(F)c(c23)-c2cc(F)ccc21 [Example 49, tert-butyl 4-(1,10-difluoro-7-methyl-6,7-dihydro-4H-3,4,7-triazadibenzo[cd,f]azulen-5-yl)-3,6-dihydropyridine-1(2H)-carboxylate] | 0.78 µM | 0.78 µM
CN(CCO)C(=O)CN1C2C=C(c3[nH]c4nccc5c4c3CN(C)c3ccc(F)cc3-5)CC1CCC2 (stereo not shown) [Example 103, 2-[3-(10-fluoro-7-methyl-6,7-dihydro-4H-3,4,7-triazadibenzo[cd,f]azulen-5-yl)-9-azabicyclo[3.3.1]non-2-en-9-yl]-N-(2-hydroxyethyl)-N-methylacetamide] | 0.086 µM | 0.051 µM
CN1Cc2c(-c3ccc(CC(=O)O)cc3)[nH]c3nccc(c23)-c2cc(F)ccc21 [Example 81, [4-(10-fluoro-7-methyl-6,7-dihydro-4H-3,4,7-triazadibenzo[cd,f]azulen-5-yl)phenyl]acetic acid] | 0.068 µM | 0.79 µM
CN1Cc2c(C3=CC4CCCC(C3)N4C(=O)CC#N)[nH]c3nccc(c23)-c2cc(F)ccc21 (stereo not shown) [Example 102, 3-[3-(10-fluoro-7-methyl-6,7-dihydro-4H-3,4,7-triazadibenzo[cd,f]azulen-5-yl)-9-azabicyclo[3.3.1]non-2-en-9-yl]-3-oxopropanenitrile] | 0.044 µM | 0.623 µM
CN1Cc2c(C3=CCN(CC(=O)N4CC(O)C4)CC3)[nH]c3nccc(c23)-c2cc(F)c(F)cc21 [Example 137, 2-[4-(9,10-difluoro-7-methyl-6,7-dihydro-4H-3,4,7-triazadibenzo[cd,f]azulen-5-yl)-3,6-dihydropyridin-1(2H)-yl]-1-(3-hydroxyazetidin-1-yl)ethanone] | 0.052 µM | 0.045 µM
CN(C)C(=O)CN1CC=C(c2[nH]c3ncc(F)c4c3c2CN(C)c2ccccc2-4)CC1 [Example 163, 2-[4-(1-fluoro-7-methyl-6,7-dihydro-4H-3,4,7-triazadibenzo[cd,f]azulen-5-yl)-3,6-dihydropyridin-1(2H)-yl]-N,N-dimethylacetamide] | 0.056 µM | 0.007 µM

More lines, in order of falling IC50 (CDK9/Cyclin T1), values ahead:

IC50 (CDK9/Cyclin T1) | IC50 (H929 cells) | Structure (SMILES)
3.3 µM | > 10 µM | CN1Cc2c(-c3cnc(N)nc3)[nH]c3nccc(c23)-c2cc(F)ccc21 [Example 46, 5-(10-fluoro-7-methyl-6,7-dihydro-4H-3,4,7-triazadibenzo[cd,f]azulen-5-yl)pyrimidin-2-amine]
0.95 µM | 2.6 µM | CN1Cc2c(C3=CCN(CC(=O)N4CCC[C@H]4CO)CC3(C)C)[nH]c3nccc(c23)-c2cc(F)ccc21 [Example 115, 2-[4-(10-fluoro-7-methyl-6,7-dihydro-4H-3,4,7-triazadibenzo[cd,f]azulen-5-yl)-3,3-dimethyl-3,6-dihydropyridin-1(2H)-yl]-1-[(2S)-2-(hydroxymethyl)pyrrolidin-1-yl]ethanone]
0.54 µM | 3.1 µM | CN(CC(O)CO)C(=O)CN1CCC=C(c2[nH]c3nccc4c3c2CN(C)c2ccc(F)cc2-4)C1 (stereo not shown) [Example 123, N-(2,3-dihydroxypropyl)-2-[5-(10-fluoro-7-methyl-6,7-dihydro-4H-3,4,7-triazadibenzo[cd,f]azulen-5-yl)-3,6-dihydropyridin-1(2H)-yl]-N-methylacetamide]
0.17 µM | 1.9 µM | CN1Cc2c(C3=CCCN(CC(=O)O)CC3)[nH]c3nccc(c23)-c2cc(F)ccc21 [Example 90, [4-(10-fluoro-7-methyl-6,7-dihydro-4H-3,4,7-triazadibenzo[cd,f]azulen-5-yl)-2,3,6,7-tetrahydro-1H-azepin-1-yl]acetic acid]
0.12 µM | 0.032 µM | CCC1c2c(C3=CCN(S(C)(=O)=O)CC3)[nH]c3nccc(c23)-c2cc(F)ccc2N1C (stereo not shown) [Example 11, 6-ethyl-10-fluoro-7-methyl-5-[1-(methylsulfonyl)-1,2,3,6-tetrahydropyridin-4-yl]-6,7-dihydro-4H-3,4,7-triazadibenzo[cd,f]azulene]
0.11 µM | 0.83 µM | CN1Cc2c(-c3ccc(S(C)(=O)=O)nc3)[nH]c3nccc(c23)-c2cc(F)ccc21 [Example 45, 10-fluoro-7-methyl-5-[6-(methylsulfonyl)pyridin-3-yl]-6,7-dihydro-4H-3,4,7-triazadibenzo[cd,f]azulene]
0.09 µM | 0.1 µM | CN1Cc2c(C3=CCCNCC3)[nH]c3nccc(c23)-c2cc(F)ccc21 [Example 87, 10-fluoro-7-methyl-5-(2,3,6,7-tetrahydro-1H-azepin-4-yl)-6,7-dihydro-4H-3,4,7-triazadibenzo[cd,f]azulene]
0.075 µM | 0.008 µM | CN1Cc2c(C3=CCN([C@H]4CC[C@H](C(=O)O)CC4)CC3)[nH]c3ncc(F)c(c23)-c2cc(F)ccc21 [Example 166, trans-4-[4-(1,10-difluoro-7-methyl-6,7-dihydro-4H-3,4,7-triazadibenzo[cd,f]azulen-5-yl)-3,6-dihydropyridin-1(2H)-yl]cyclohexanecarboxylic acid]
0.075 µM | 0.32 µM | CN1Cc2c(-c3cccnc3)[nH]c3nccc(c23)-c2cc(F)ccc21 [Example 60, 10-fluoro-7-methyl-5-(pyridin-3-yl)-6,7-dihydro-4H-3,4,7-triazadibenzo[cd,f]azulene]
0.064 µM | 0.025 µM | CN1Cc2c(C3=CCC(N[C@H](C(=O)O)C(C)(C)C)CC3)[nH]c3nccc(c23)-c2cc(F)ccc21 (stereo partly drawn) [Example 36, N-[4-(10-fluoro-7-methyl-6,7-dihydro-4H-3,4,7-triazadibenzo[cd,f]azulen-5-yl)cyclohex-3-en-1-yl]-3-methyl-L-valine]
0.046 µM | 0.078 µM | CN(C)C(=O)CN1CC2C=C(c3[nH]c4nccc5c4c3CN(C)c3ccc(F)cc3-5)CC2C1 (stereo not shown) [Example 77, 2-[5-(10-fluoro-7-methyl-6,7-dihydro-4H-3,4,7-triazadibenzo[cd,f]azulen-5-yl)-3,3a,4,6a-tetrahydrocyclopenta[c]pyrrol-2(1H)-yl]-N,N-dimethylacetamide]
